Measurements reported in publication PMC4503722, “Novel Phenotypic Outcomes Identified for a Public Collection of Approved Drugs from a Publicly Accessible Panel of Assays” (PLoS ONE, 2015).
Where two headings read alike, the source gives them in different places.

Tests used:
Colo320 = experiment: cells; type: cell-based; conditions: for IC50: read-out: Basal_Viability ATP Colo 320 summarized IC50
[1] = system: endothelial tube formation in co-cultures of ECFCs and ADSCs treated with VEGF; experiment: cells; type: cell-based, human; conditions: for IC50: read-out: VEGF_ADSC\ECFC Angio CD31 TubeArea summarized IC50
HeLa cells = experiment: cells; type: cell-based;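 for Hela CellCycMod PI 4N summarized IC50: value tracks stimulation of 4N DNA content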
[2] = system: HCT116 cells treated with a GSK3β inhibitor; experiment: cells; type: cell-based; conditions: for IC50/EC50, GSK3b inh pretreated_Viability ATP HCT116 (assay number 26): GSK3b inh pretreated; for IC50: read-out: GSK3b inh pretreated_Viability ATP HCT116 summarized IC50
DLD-1 = experiment: cells; type: cell-based; conditions: for IC50: read-out: Basal_Viability ATP DLD-1 summarized IC50
SNU-C1 = experiment: cells; type: cell-based; conditions: for IC50: read-out: Basal_Viability ATP SNU-C1 summarized IC50
[3] = system: ECFC/ADSC co-culture cell nuclei number; conditions: for IC50: read-out: VEGF_ADSC\ECFC Angio Hoechst NucArea summarized IC50
SW480 = experiment: cells; type: cell-based; conditions: for IC50: read-out: Basal_Viability ATP SW480 summarized IC50
HT-29 = experiment: cells; type: cell-based; conditions: for IC50: read-out: Basal_Viability ATP HT-29 summarized IC50
HCT116 = experiment: cells; type: cell-based; conditions: for IC50: read-out: Basal_Viability ATP HCT116 summarized IC50
RKO = experiment: cells; type: cell-based; conditions: for IC50: read-out: Basal_Viability ATP RKO summarized IC50
[4] = assay number 26, GSK3b inhibitor pretreated

O=C(Nc1ccc(Br)cc1)c1cc(Br)cc(Br)c1O [NCGC00159476-09]
IC50/EC50, Basal_Viability ATP Colo 320 (assay number 27) (Colo320; basal): 0.003 µM
IC50/EC50, VEGF_ADSC\ECFC Angio CD31 TubeArea (assay number 2) [1]: 1.8138 µM
IC50/EC50, Hela CellCycMod PI 2N (assay number 14) (HeLa cells; 2N): > 10 µM
IC50/EC50, Hela CellCycMod PI 4N (assay number 16) (HeLa cells; 4N): > 10 µM
IC50/EC50, Hela CellCycMod PI Cell Number (assay number 18) (HeLa cells): > 10 µM
IC50/EC50, Hela CellCycMod PI MI (assay number 17) (HeLa cells; MI): > 10 µM
IC50/EC50, Hela CellCycMod PI S Phase (assay number 15) (HeLa cells): > 10 µM
IC50/EC50, GSK3b inh pretreated_Viability ATP HCT116 (assay number 26) [2]: 0.001 µM
IC50/EC50, Basal_Viability ATP DLD-1 (assay number 23) (DLD-1; basal): 0.001 µM
IC50/EC50, Basal_Viability ATP SNU-C1 (assay number 30) (SNU-C1; basal): 0.001 µM
IC50/EC50, VEGF_ADSC\ECFC Angio Hoechst NucArea (assay number 3) [3]: > 10 µM
IC50/EC50, Basal_Viability ATP SW480 (assay number 24) (SW480; basal): 0.001 µM
IC50/EC50, Basal_Viability ATP HT-29 (assay number 28) (HT-29; basal): 0.001 µM
IC50/EC50, Basal_Viability ATP HCT116 (assay number 25) (HCT116; basal): 0.003 µM
IC50/EC50, Basal_Viability ATP RKO (assay number 29) (RKO; basal): 0.003 µM

O=C1C(I)=CC(=C(c2cc(I)c(O)c(I)c2)c2ccccc2C(=O)O)C=C1I [NCGC00161636-02]
IC50 (Colo320): 0.312 µM
IC50 [1]: > 10 µM
IC50 (HeLa cells; read-out: Hela CellCycMod PI 2N summarized IC50): > 10 µM
IC50 (HeLa cells; read-out: Hela CellCycMod PI 4N summarized IC50): > 10 µM
IC50 (HeLa cells; read-out: Hela CellCycMod PI Cell Number summarized IC50): > 10 µM
IC50 (HeLa cells; read-out: Hela CellCycMod PI MI summarized IC50): > 10 µM
IC50 (HeLa cells; read-out: Hela CellCycMod PI S Phase summarized IC50): > 10 µM
IC50 [2]: 0.054 µM
IC50 (DLD-1): 0.0132 µM
IC50 (SNU-C1): 3.76 µM
IC50 [3]: > 10 µM
IC50 (SW480): 0.112 µM
IC50 (HT-29): 5.73 µM
IC50 (HCT116): 0.384 µM
IC50 (RKO): 0.0373 µM

O=C1C2CC=CCC2C(=O)N1SC(Cl)(Cl)Cl (stereo not drawn) [NCGC00091034-10]
IC50 (Colo320; assay number 27, basal): 0.306 µM
IC50 [1]: > 10 µM
IC50 (HeLa cells; assay number 14, 2N, read-out: Hela CellCycMod PI 2N summarized IC50): > 10 µM
IC50 (HeLa cells; assay number 15, S phase, read-out: Hela CellCycMod PI S Phase summarized IC50): > 10 µM
IC50 (HeLa cells; assay number 16, 4N, read-out: Hela CellCycMod PI 4N summarized IC50): > 10 µM
IC50 (HeLa cells; assay number 17, MI, read-out: Hela CellCycMod PI MI summarized IC50): 6.14 µM
IC50 (HeLa cells; assay number 18, cell number, read-out: Hela CellCycMod PI Cell Number summarized IC50): 1.79 µM
IC50 [2, 4]: 2.21 µM
IC50 (DLD-1; assay number 23, basal): 0.348 µM
IC50 (SNU-C1; assay number 30, basal): 0.903 µM
IC50 [3]: > 10 µM
IC50 (SW480; assay number 24, basal): 0.0788 µM
IC50 (HT-29; assay number 28, basal): 0.5 µM
IC50 (HCT116; assay number 25, basal): 1.76 µM
IC50 (RKO; assay number 29, basal): 0.402 µM

Cc1cc(N)c2ccccc2[n+]1CCCCCCCCCC[n+]1c(C)cc(N)c2ccccc21 [NCGC00015339-07]
IC50/EC50, Basal_Viability ATP Colo 320 (assay number 27) (Colo320; basal): 15.8701 µM
IC50/EC50, VEGF_ADSC\ECFC Angio CD31 TubeArea (assay number 2) [1]: > 10 µM
IC50/EC50, Hela CellCycMod PI 2N (assay number 14) (HeLa cells; 2N): > 10 µM
IC50/EC50, Hela CellCycMod PI 4N (assay number 16) (HeLa cells; 4N): > 10 µM
IC50/EC50, Hela CellCycMod PI Cell Number (assay number 18) (HeLa cells): > 10 µM
IC50/EC50, Hela CellCycMod PI MI (assay number 17) (HeLa cells; MI): > 10 µM
IC50/EC50, Hela CellCycMod PI S Phase (assay number 15) (HeLa cells): > 10 µM
IC50/EC50, GSK3b inh pretreated_Viability ATP HCT116 (assay number 26) [2]: > 20 µM
IC50/EC50, Basal_Viability ATP DLD-1 (assay number 23) (DLD-1; basal): 5.7172 µM
IC50/EC50, Basal_Viability ATP SNU-C1 (assay number 30) (SNU-C1; basal): 1.2926 µM
IC50/EC50, VEGF_ADSC\ECFC Angio Hoechst NucArea (assay number 3) [3]: > 10 µM
IC50/EC50, Basal_Viability ATP SW480 (assay number 24) (SW480; basal): 3.8338 µM
IC50/EC50, Basal_Viability ATP HT-29 (assay number 28) (HT-29; basal): > 20 µM
IC50/EC50, Basal_Viability ATP HCT116 (assay number 25) (HCT116; basal): > 20 µM
IC50/EC50, Basal_Viability ATP RKO (assay number 29) (RKO; basal): 2.4541 µM

Cl.O[C@@H](CNC[C@H](O)[C@H]1CCc2cc(F)ccc2O1)[C@@H]1CCc2cc(F)ccc2O1 [NCGC00263579-01]
Basal_Viability ATP Colo 320 IC50/EC50 (Colo320; assay number 27): > 20 µM
VEGF_ADSC\ECFC Angio CD31 TubeArea IC50/EC50 [1]: > 10 µM
Hela CellCycMod PI 2N IC50/EC50 (HeLa cells; assay number 14, 2N): > 10 µM
Hela CellCycMod PI S Phase IC50/EC50 (HeLa cells; assay number 15, S phase): > 10 µM
Hela CellCycMod PI 4N IC50/EC50 (HeLa cells; assay number 16, 4N): > 10 µM
Hela CellCycMod PI MI IC50/EC50 (HeLa cells; assay number 17, MI): > 10 µM
Hela CellCycMod PI Cell Number IC50/EC50 (HeLa cells; assay number 18, cell number): 5.565 µM
GSK3b inh pretreated_Viability ATP HCT116 IC50/EC50 [2, 4]: 2.3971 µM
Basal_Viability ATP DLD-1 IC50/EC50 (DLD-1; assay number 23): 15.2632 µM
Basal_Viability ATP SNU-C1 IC50/EC50 (SNU-C1; assay number 30): 5.0932 µM
VEGF_ADSC\ECFC Angio Hoechst NucArea IC50/EC50 [3]: > 10 µM
Basal_Viability ATP SW480 IC50/EC50 (SW480; assay number 24): 3.6015 µM
Basal_Viability ATP HT-29 IC50/EC50 (HT-29; assay number 28): 4.5046 µM
Basal_Viability ATP HCT116 IC50/EC50 (HCT116; assay number 25, basal): 6.4812 µM
Basal_Viability ATP RKO IC50/EC50 (RKO; assay number 29): 3.2799 µM
